Measurements reported in ChEMBL document CHEMBL1201862, “PubChem BioAssay data set” (2004).
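Grown in 96-well plates, cells were treated for 48 hours with each compound at five concentrations. Insufficient inhibition: endpoint recorded as highest concentration tested. The concentration for 50% growth inhibition is given as GI50.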 Activity calls are given as the source filed them. Cut-off read from the data, not from the text of the source: active = GI50 up to about 1.1 µM and inactive = higher.

What was measured:
Experiment in all cases: inhibition of tumour cell growth, NCI panel, 48 h
SW-620 = system: SW-620
MCF7 = system: MCF7
MDA-N = system: MDA-N
786-0 = system: 786-0
SNB-19 = system: SNB-19
K562 = system: K562
ACHN = system: ACHN
HCT-15 = system: HCT-15
DU-145 = system: DU-145
EKVX = system: EKVX
RXF 393 = system: RXF 393
SF-268 = system: SF-268
SN12C = system: SN12C
KM12 = system: KM12
HCT-116 = system: HCT-116
NCI-H23 = system: NCI-H23
OVCAR-8 = system: OVCAR-8
HL-60 = system: HL-60
IGROV-1 = system: IGROV-1
COLO 205 = system: COLO 205
M14 = system: M14
MOLT-4 = system: MOLT-4
TK-10 = system: TK-10
RPMI-8226 = system: RPMI-8226
HT-29 = system: HT-29
HOP-92 = system: HOP-92
BT-549 = system: BT-549
CCRF-CEM = system: CCRF-CEM
OVCAR-5 = system: OVCAR-5
Malme-3M = system: Malme-3M
NCI/ADR-RES = system: NCI/ADR-RES
SF-539 = system: SF-539
UO-31 = system: UO-31
CAKI-1 = system: CAKI-1
Hs-578T = system: Hs-578T
UACC-62 = system: UACC-62
UACC-257 = system: UACC-257
OVCAR-3 = system: OVCAR-3
MDA-MB-435 = system: MDA-MB-435
MDA-MB-231 = system: MDA-MB-231
NCI-H226 = system: NCI-H226
SK-MEL-5 = system: SK-MEL-5
T47D = system: T47D
SNB-75 = system: SNB-75
OVCAR-4 = system: OVCAR-4
LOX IMVI = system: LOX IMVI
SR = system: SR
A549 = system: A549
NCI-H460 = system: NCI-H460
PC-3 = system: PC-3
SK-OV-3 = system: SK-OV-3
U-251 = system: U-251
SK-MEL-28 = system: SK-MEL-28
SK-MEL-2 = system: SK-MEL-2
SF-295 = system: SF-295
HOP-62 = system: HOP-62
HCC 2998 = system: HCC 2998
NCI-H522 = system: NCI-H522

## O=C(OCCN=c1c2ccccc2ccc2ccccc12)c1cc([N+](=O)[O-])cc([N+](=O)[O-])c1
SW-620
  GI50: > 100 µM (inactive)
MCF7
  GI50: > 100 µM (inactive)
MDA-N
  GI50: > 100 µM (inactive)
786-0
  GI50: > 100 µM (inactive)
SNB-19
  GI50: > 100 µM (inactive)
K562
  GI50: > 100 µM (inactive)
ACHN
  GI50: > 100 µM (inactive)
HCT-15
  GI50: > 100 µM
DU-145
  GI50: > 100 µM (inactive)
EKVX
  GI50: > 100 µM (inactive)
RXF 393
  GI50: > 100 µM (inactive)
SF-268
  GI50: > 100 µM (inactive)
SN12C
  GI50: > 100 µM (inactive)
KM12
  GI50: > 100 µM (inactive)
HCT-116
  GI50: > 100 µM (inactive)
NCI-H23
  GI50: > 100 µM (inactive)
OVCAR-8
  GI50: > 100 µM (inactive)
HL-60
  GI50: > 100 µM (inactive)
IGROV-1
  GI50: > 100 µM (inactive)
COLO 205
  GI50: > 100 µM (inactive)
M14
  GI50: > 100 µM (inactive)
MOLT-4
  GI50: > 100 µM (inactive)
TK-10
  GI50: > 100 µM (inactive)
RPMI-8226
  GI50: > 100 µM (inactive)
HT-29
  GI50: > 100 µM (inactive)
HOP-92
  GI50: > 100 µM (inactive)
BT-549
  GI50: 25.8 µM (inactive)
CCRF-CEM
  GI50: > 100 µM (inactive)
OVCAR-5
  GI50: > 100 µM (inactive)
Malme-3M
  GI50: 21.5 µM (inactive)
NCI/ADR-RES
  GI50: > 100 µM (inactive)
SF-539
  GI50: > 100 µM (inactive)
UO-31
  GI50: > 100 µM (inactive)
CAKI-1
  GI50: > 100 µM (inactive)
Hs-578T
  GI50: > 100 µM (inactive)
UACC-62
  GI50: > 100 µM (inactive)
UACC-257
  GI50: > 100 µM (inactive)
OVCAR-3
  GI50: 40.6 µM (inactive)
MDA-MB-435
  GI50: > 100 µM (inactive)
MDA-MB-231
  GI50: > 100 µM (inactive)
NCI-H226
  GI50: > 100 µM (inactive)
SK-MEL-5
  GI50: > 100 µM (inactive)
T47D
  GI50: > 100 µM (inactive)
SNB-75
  GI50: > 100 µM (inactive)
OVCAR-4
  GI50: 36.1 µM (inactive)
LOX IMVI
  GI50: > 100 µM (inactive)
SR
  GI50: > 100 µM (inactive)
A549
  GI50: > 100 µM (inactive)
NCI-H460
  GI50: > 100 µM (inactive)
PC-3
  GI50: > 100 µM (inactive)
SK-OV-3
  GI50: > 100 µM (inactive)
U-251
  GI50: > 100 µM (inactive)
SK-MEL-28
  GI50: > 100 µM (inactive)
SK-MEL-2
  GI50: > 100 µM (inactive)
SF-295
  GI50: > 100 µM (inactive)
HOP-62
  GI50: > 100 µM (inactive)

## COCOc1c(C(O[Si](C)(C)C(C)(C)C)c2cnc(Sc3ccccc3)n2C)ccc(OC)c1OC (configuration not stated)
SW-620
  GI50: 1.93 µM (inactive)
MCF7
  GI50: 1.76 µM (inactive)
MDA-N
  GI50: 1.77 µM (inactive)
786-0
  GI50: 1.82 µM (inactive)
SNB-19
  GI50: 2.14 µM (inactive)
K562
  GI50: 2.75 µM (inactive)
ACHN
  GI50: 2.42 µM (inactive)
HCT-15
  GI50: 1.94 µM
DU-145
  GI50: > 100 µM (inactive)
EKVX
  GI50: 2.53 µM (inactive)
RXF 393
  GI50: 1.36 µM (inactive)
SF-268
  GI50: 1.64 µM (inactive)
SN12C
  GI50: 1.78 µM (inactive)
KM12
  GI50: 1.92 µM (inactive)
HCT-116
  GI50: 1.6 µM (inactive)
NCI-H23
  GI50: > 100 µM (inactive)
OVCAR-8
  GI50: 1.43 µM (inactive)
HL-60
  GI50: 1.87 µM (inactive)
IGROV-1
  GI50: 1.97 µM (inactive)
MOLT-4
  GI50: 2.54 µM (inactive)
TK-10
  GI50: 4.28 µM (inactive)
RPMI-8226
  GI50: 1.85 µM (inactive)
HT-29
  GI50: 1.93 µM (inactive)
HOP-92
  GI50: 2.13 µM (inactive)
BT-549
  GI50: 1.69 µM (inactive)
CCRF-CEM
  GI50: 2.84 µM (inactive)
OVCAR-5
  GI50: > 100 µM (inactive)
Malme-3M
  GI50: 2.45 µM (inactive)
NCI/ADR-RES
  GI50: 1.35 µM (inactive)
SF-539
  GI50: 1.97 µM (inactive)
UO-31
  GI50: 1.83 µM (inactive)
CAKI-1
  GI50: 3.03 µM (inactive)
Hs-578T
  GI50: 2.31 µM (inactive)
UACC-62
  GI50: 1.65 µM (inactive)
UACC-257
  GI50: 2.25 µM (inactive)
OVCAR-3
  GI50: 1.7 µM (inactive)
MDA-MB-435
  GI50: 1.75 µM (inactive)
MDA-MB-231
  GI50: 1.66 µM (inactive)
NCI-H226
  GI50: 1.85 µM (inactive)
SK-MEL-5
  GI50: 1.82 µM (inactive)
T47D
  GI50: 0.256 µM (active)
SNB-75
  GI50: 2.2 µM (inactive)
HCC 2998
  GI50: 1.84 µM (inactive)
OVCAR-4
  GI50: 3 µM (inactive)
LOX IMVI
  GI50: 1.84 µM (inactive)
SR
  GI50: 2.47 µM (inactive)
A549
  GI50: 1.88 µM (inactive)
NCI-H460
  GI50: 1.53 µM (inactive)
PC-3
  GI50: 1.55 µM (inactive)
SK-OV-3
  GI50: 2.05 µM (inactive)
U-251
  GI50: 1.64 µM (inactive)
SK-MEL-28
  GI50: 1.84 µM (inactive)
NCI-H522
  GI50: 1.62 µM (inactive)
SK-MEL-2
  GI50: 1.31 µM (inactive)
SF-295
  GI50: 2.65 µM (inactive)
HOP-62
  GI50: 1.66 µM (inactive)
